Results: patent US20090156625A1, “Novel Use of a Nicotinic Receptor Agonist 156” (AstraZeneca AB, priority 2007, published 2009)
Like-named read-outs stand apart in the source and are kept apart here.

Assays:
in vivo [1] = conditions: guinea pig
Excerpt: (§4) This Fabs parameter was then adjusted to bioavailability (F) by correction for hepatic extraction. […] The clinical dosing frequency desired was assumed to be once daily.

[2] = test system: S-GAG (aggrecanase activity); experiment: Histamine induced acute articular inflammation in mouse: S-GAG analysis (DMMB assay) of cartilage extract; assay type: in vivo; conditions: C57B16 mice, oral
Experimental: (§1) At 1-hour post oral treatment with either vehicle hydroxypropyl methylcellulose (HPMC) or E1, C57B16 mice were anaesthetized under isofluorane by inhalation. An H1 specific receptor antagonist desloratadine (5 mg/kg) was used as a positive control. The left hind knee was shaved, dampened with 70% ethanol and injected intra articularly into the knee joint (6 μl volume) with either saline or histamine (5 μM) using a glass Hamilton syringe and 30-gauge needle. Mice were allowed to recover in their home cage and kept on study for 48 hours post injection and dosed with compound.
(§2) After synovial lavage, the joint was disarticulated and cartilage was removed with a scalpel from the tibial plateau & femoral condyle, taking care to minimise the amounts of bone. Cartilage samples were weighed and snap frozen. The cartilage from individual animals was extracted in 200 μl high salt buffer (HSB) overnight at 4° C. with gentle agitation.
(§3) Samples were centrifuged at 10000 rpm for 10 min and the HSB cartilage extract decanted and stored at −80° C. prior to analysis.
HSB cartilage extracts were digested with hyaluronidase (110 units/ml) 37° C. for 3 hrs followed by papain digestion at 60° C. overnight. Digested samples were then centrifuged at 12000 g for 15 minutes. […] The plate was read immediately at 532 nm and 620 nm wavelengths and data calculated as O.D 532 nm/O.D 620 nm minus background. […]

MMP13 = experiment: Histamine induced acute articular inflammation in mouse: MMP13 fluorokine ELISA of cartilage extract; assay type: in vivo; conditions: for cartilage extract MMP13 levels: C57B16 mice, oral
Experimental: as §1, §2, §3
MMP13 fluorokine ELISA (96-Well Plate Format)
HSB cartilage extracts were tested in duplicate at a 1:5 dilution. There were no deviations from the kit instructions (F13M00, R&D Systems) and the plate was read using an excitation wavelength of 320 nm and an emission wavelength of 405 nm.

[3] = In vivo PK in dog (Vss, Fabs)
Excerpt: as §4

[4] = Mouse PK in low dose pharmacodynamic study (micro-sampling, LC-MS/MS); assay type: in vivo; conditions: mice, oral 0.1, 0.001 and 0.0001 mg/kg b.i.d. for 48 hrs, blood
Experimental: Mice were weighed and orally dosed according to weight at a dose volume of 10 ml/kg (dosed at 0.1 mg/kg, 0.001 mg/kg and 0.0001 mg/kg b.i.d. for 48 hrs). The PK and low dose pharmacodynamic studies were performed in the same group of animals.
Individual mice were repeatedly sampled at various timepoints over the 48 hr duration of the study by taking small volumes of blood by micro-sampling technique. After heating and mild restrain behind a Perspex stand, the tip of the tail was pricked with a 24 gauge needle and whole blood collected into an EDTA 20 μl glass micro sampling tubes. The 20 μl blood sample was then mixed with 80 μls of distilled water and frozen until analysis.
At study termination the mice were culled using CO2 gas. A blood volume of about 0.4 mL was obtained by cardiac puncture. A volume of whole blood was then mixed with distilled water to lyse the cells (ratio 1:1) and stored for analysis.

in vivo [5] = conditions: mouse
Experimental: In order to gain confidence in predicting circulating levels, mouse PK at 1 mg/kg oral dosing was subsequently carried out.
Blood concentrations are given in nM.

[6] = rat, in vivo
Excerpt: as §4

in vivo [7] = conditions: rat
Excerpt: as §4

Human dose prediction = conditions: used for human Vss estimate
Excerpt: Human dose prediction for clinical studies requires an estimate of human PK parameters important for defining the elimination T1/2 and the shape and magnitude of the plasma concentration vs time profile at a particular dose. These estimated parameters include Clearance, Volume of Distribution at Steady State (Vss), absorption rate constant (Ka), bioavailability (F) and dosing frequency. Human dose predictions also require some pharmacological evidence as to how exposure relates to efficacy (McGinnity, Collington, Austin & Riley, Current Drug Metabolism 2007 8 463-479).
Having defined the shape and magnitude of the human plasma concentration vs time curve, the final step was to adjust the dose so that plasma concentrations are attained that are likely to achieve efficacy. […] It was impossible to quantify the compound at these dose levels; consequently plasma concentrations observed at a higher oral dose (about 1 mg/kg) were extrapolated down to that likely at efficacious doses, assuming linear kinetics between the two. Finally, in the absence of a real PK/PD relationship in the mouse, it was assumed that efficacy in humans would be related to plasma AUC. Consequently, the human dose was adjusted to give, in conjunction with the estimated human PK parameters defined above, a human AUC value similar to that observed in mouse at efficacious doses.

## CNCc1ccc(-c2cnc3c(c2)C[C@@]2(CN4CCC2CC4)O3)s1 [Example E1, N-methyl-1-{5-[(2R)-3′H-spiro[4-azabicyclo[2.2.2]octane-2,2′-furo[2,3-b]pyridin]-5′-yl]-2-thienyl}methanamine]
In vivo [1]
  Vd: 10.2 L/kg
[2]; 1 mg/kg b.i.d. for 48 hrs
  S-GAG cartilage levels: significantly reduced
[2]; 1 mg/kg single dose over 48 hr
  S-GAG cartilage levels: significantly reduced
MMP13; 0.0001 mg/kg b.i.d. for 48 hrs (further study, FIG. 6)
  cartilage extract MMP13 levels: decreased levels of MMP13
MMP13; 0.001 mg/kg b.i.d. for 48 hrs (further study, FIG. 6)
  cartilage extract MMP13 levels: decreased levels of MMP13
MMP13; 0.1 mg/kg b.i.d. for 48 hrs (further study, FIG. 6)
  cartilage extract MMP13 levels: decreased levels of MMP13
MMP13; 0.1 mg/kg b.i.d. for 48 hrs, tibial cartilage (first study, FIG. 4)
  cartilage extract MMP13 levels: decreased levels of MMP13
MMP13; 1 mg/kg b.i.d. for 48 hrs, tibial cartilage
  cartilage extract MMP13 levels: decreased levels of MMP13
MMP13; 1 mg/kg once over the 48 hr study period, tibial cartilage
  cartilage extract MMP13 levels: decreased levels of MMP13
MMP13; mouse PD studies
  dose at which efficacy against MMP down-regulation and joint swelling was observed (as low as): 0.1 µg/kg
[3]; dog
  Fabs (fraction absorbed): 70%
[3]; dog in vivo
  Vd: 27 L/kg
[4]
  circulating levels: could not be detected in many animals
In vivo [5]; 0.001 mg/kg
  concentration at 0 h: 0.0003 nM
  concentration at 0.17 h: 0.0017 nM
  concentration at 0.33 h: 0.0058 nM
  concentration at 0.5 h: 0.0081 nM
  concentration at 0.75 h: 0.0119 nM
  concentration at 1 h: 0.0156 nM
  concentration at 2 h: 0.0266 nM
  concentration at 4 h: 0.0326 nM
  concentration at 6 h: 0.0332 nM
  concentration at 8 h: 0.0349 nM
  concentration at 10 h: 0.0297 nM
  concentration at 12 h: 0.0284 nM
  concentration at 24 h: 0.0172 nM
In vivo [5]; 0.01 mg/kg
  concentration at 0 h: 0 nM
  concentration at 0.17 h: 0.02 nM
  concentration at 0.33 h: 0.06 nM
  concentration at 0.5 h: 0.08 nM
  concentration at 0.75 h: 0.12 nM
  concentration at 1 h: 0.16 nM
  concentration at 2 h: 0.27 nM
  concentration at 4 h: 0.33 nM
  concentration at 6 h: 0.33 nM
  concentration at 8 h: 0.35 nM
  concentration at 10 h: 0.3 nM
  concentration at 12 h: 0.28 nM
  concentration at 24 h: 0.17 nM
In vivo [5]; 0.03 mg/kg
  concentration at 0 h: 0.01 nM
  concentration at 0.17 h: 0.05 nM
  concentration at 0.33 h: 0.17 nM
  concentration at 0.5 h: 0.24 nM
  concentration at 0.75 h: 0.36 nM
  concentration at 1 h: 0.47 nM
  concentration at 2 h: 0.8 nM
  concentration at 4 h: 0.98 nM
  concentration at 6 h: 1 nM
  concentration at 8 h: 1.05 nM
  concentration at 10 h: 0.89 nM
  concentration at 12 h: 0.85 nM
  concentration at 24 h: 0.52 nM
In vivo [5]; 0.1 mg/kg
  concentration at 0 h: 0.03 nM
  concentration at 0.17 h: 0.17 nM
  concentration at 0.33 h: 0.58 nM
  concentration at 0.5 h: 0.81 nM
  concentration at 0.75 h: 1.19 nM
  concentration at 1 h: 1.56 nM
  concentration at 2 h: 2.66 nM
  concentration at 4 h: 3.26 nM
  concentration at 6 h: 3.32 nM
  concentration at 8 h: 3.49 nM
  concentration at 10 h: 2.97 nM
  concentration at 12 h: 2.84 nM
  concentration at 24 h: 1.72 nM
In vivo [5]; po, 0.001 mg/kg
  AUC: 0.29 nM·h
  Cmax: 0.035 nM
In vivo [5]; po, 0.01 mg/kg
  AUC: 2.94 nM·h
  Cmax: 0.349 nM
In vivo [5]; po, 0.03 mg/kg
  AUC: 8.81 nM·h
  Cmax: 1.05 nM
In vivo [5]; po, 0.1 mg/kg
  AUC: 29.4 nM·h
  Cmax: 3.49 nM
In vivo [5]; po, 1 mg/kg
  AUC: 294 nM·h
  Cmax: 35 nM
  concentration at 0 h: 0.31 nM
  concentration at 0.17 h: 1.65 nM
  concentration at 0.33 h: 5.75 nM
  concentration at 0.5 h: 8.08 nM
  concentration at 0.75 h: 11.9 nM
  concentration at 1 h: 15.6 nM
  concentration at 2 h: 26.6 nM
  concentration at 4 h: 32.6 nM
  concentration at 6 h: 33.2 nM
  concentration at 8 h: 34.9 nM
  concentration at 10 h: 29.7 nM
  concentration at 12 h: 28.4 nM
  concentration at 24 h: 17.2 nM
[6]
  Fabs (fraction absorbed): 83%
In vivo [7]
  Vd: 35.5 L/kg
Human dose prediction
  Vss derived by simple allometry across rat and dog: 5.7 L/kg
